Measured values as given in patent US20230301300A1, “HERBICIDAL COMPOSITIONS” (SYNGENTA CROP PROTECTION AG, priority 2020, published 2023).

Legend:
Experiment in all cases: B2 Post-Emergence Efficacy - Test 2
Assay type in all cases: in vivo
Galium aparine (GALAP) = settings: 15 days after application, 0-100 scale
In short: (§1)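 Herbicidal effect was rated visually from 0 (no damage) to 100 (complete kill) fifteen days after treatment. Seedlings had been raised for 12 days under controlled glasshouse conditions and then sprayed with the active ingredient formulated in IF50, diluted in water with 0.2% v/v Genapol X080 adjuvant.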

[1] = tested on: Digitaria sanguinalis (DIGSA); settings: 15 days after application, 0=no damage, 100=total kill
In short: as §1

Lolium perenne (LOLPE) = settings: 15 days after application, 0-100 scale
In short: as §1

Eleisine indica (ELEIN) = settings: 15 days after application, 0=no damage, 100=total kill
In short: as §1

Veronica persica (VERPE) = settings: 15 days after application, 0-100 scale
In short: as §1

[2] = tested on: Xanthium strumarium (XANST); settings: 15 days after application, 0-100 scale
In short: as §1

Poa annua (POAAN) = settings: 15 days after application, 0-100 scale
In short: as §1

Sida spinosa (SIDSP) = settings: 15 days after application, 0-100 scale
In short: as §1

Beta vulgaris (BEAVA) = settings: 15 days after application, 0-100 scale
In short: as §1

[3] = tested on: Panicum miliaceum (PANMI); settings: 15 days after application, 0=no damage, 100=total kill
In short: as §1

[4] = tested on: Alopecurus myosuroides (ALOMY); settings: 15 days after application, 0-100 scale
In short: as §1

[5] = tested on: Triticum aestivum (TRZAW); settings: 15 days after application, 0-100 scale
In short: as §1

[6] = tested on: Chenopodium album (CHEAL); settings: 15 days after application, 0-100 scale
In short: as §1

Bidens pilosa (BIDPI) = settings: 15 days after application, 0-100 scale
In short: as §1

Zea mays (ZEAMX) = settings: 15 days after application; for Herbicidal activity ZEAMX: 0-100 scale; for Herbicidal activity on a 0-100 scale, ZEAMX: 0=no damage, 100=total kill
In short: as §1

Brassica napus (BRSNN) = settings: 15 days after application, 0-100 scale
In short: as §1

Stellaria media (STEME) = settings: 15 days after application, 0-100 scale
In short: as §1

Sorghum bicolour (SORVU) = settings: 15 days after application, 0=no damage, 100=total kill
In short: as §1

Cc1nn(C)c(=O)c(-c2c(F)ccc(Cl)c2CCc2ccc(Cl)cc2)c1OC(=O)C(C)C [Compound 1.089, [5-[3-chloro-2-[2-(4-chlorophenyl)ethyl]-6-fluoro-phenyl]-1,3-dimethyl-6-oxo-pyridazin-4-yl] 2-methylpropanoate]
Herbicidal activity GALAP (Galium aparine (GALAP); 15 g/Ha): 10
Herbicidal activity GALAP (Galium aparine (GALAP); 30 g/Ha): 20
Herbicidal activity GALAP (Galium aparine (GALAP); 125 g/Ha): 30
Herbicidal activity GALAP (Galium aparine (GALAP); 250 g/Ha): 30
Herbicidal activity GALAP (Galium aparine (GALAP); 500 g/Ha): 90
Herbicidal activity on a 0-100 scale, DIGSA ([1]; 15 g/Ha): 0
Herbicidal activity on a 0-100 scale, DIGSA ([1]; 30 g/Ha): 0
Herbicidal activity on a 0-100 scale, DIGSA ([1]; 60 g/Ha): 0
Herbicidal activity on a 0-100 scale, DIGSA ([1]; 125 g/Ha): 10
Herbicidal activity on a 0-100 scale, DIGSA ([1]; 250 g/Ha): 40
Herbicidal activity on a 0-100 scale, DIGSA ([1]; 500 g/Ha): 30
Herbicidal activity LOLPE (Lolium perenne (LOLPE); 15 g/Ha): 40
Herbicidal activity LOLPE (Lolium perenne (LOLPE); 30 g/Ha): 70
Herbicidal activity LOLPE (Lolium perenne (LOLPE); 60 g/Ha): 80
Herbicidal activity LOLPE (Lolium perenne (LOLPE); 125 g/Ha): 90
Herbicidal activity LOLPE (Lolium perenne (LOLPE); 250 g/Ha): 90
Herbicidal activity LOLPE (Lolium perenne (LOLPE); 500 g/Ha): 90
Herbicidal activity on a 0-100 scale, ELEIN (Eleisine indica (ELEIN); 15 g/Ha): 0
Herbicidal activity on a 0-100 scale, ELEIN (Eleisine indica (ELEIN); 30 g/Ha): 0
Herbicidal activity on a 0-100 scale, ELEIN (Eleisine indica (ELEIN); 60 g/Ha): 70
Herbicidal activity on a 0-100 scale, ELEIN (Eleisine indica (ELEIN); 125 g/Ha): 80
Herbicidal activity on a 0-100 scale, ELEIN (Eleisine indica (ELEIN); 250 g/Ha): 90
Herbicidal activity on a 0-100 scale, ELEIN (Eleisine indica (ELEIN); 500 g/Ha): 90
Herbicidal activity VERPE (Veronica persica (VERPE); 15 g/Ha): 70
Herbicidal activity VERPE (Veronica persica (VERPE); 30 g/Ha): 80
Herbicidal activity VERPE (Veronica persica (VERPE); 60 g/Ha): 90
Herbicidal activity VERPE (Veronica persica (VERPE); 125 g/Ha): 90
Herbicidal activity VERPE (Veronica persica (VERPE); 250 g/Ha): 100
Herbicidal activity VERPE (Veronica persica (VERPE); 500 g/Ha): 100
Herbicidal activity XANST ([2]; 30 g/Ha): 90
Herbicidal activity XANST ([2]; 60 g/Ha): 80
Herbicidal activity XANST ([2]; 125 g/Ha): 90
Herbicidal activity XANST ([2]; 250 g/Ha): 90
Herbicidal activity XANST ([2]; 500 g/Ha): 100
Herbicidal activity POAAN (Poa annua (POAAN); 15 g/Ha): 20
Herbicidal activity POAAN (Poa annua (POAAN); 30 g/Ha): 40
Herbicidal activity POAAN (Poa annua (POAAN); 60 g/Ha): 70
Herbicidal activity POAAN (Poa annua (POAAN); 125 g/Ha): 90
Herbicidal activity POAAN (Poa annua (POAAN); 250 g/Ha): 80
Herbicidal activity POAAN (Poa annua (POAAN); 500 g/Ha): 70
Herbicidal activity SIDSP (Sida spinosa (SIDSP); 30 g/Ha): 80
Herbicidal activity SIDSP (Sida spinosa (SIDSP); 60 g/Ha): 90
Herbicidal activity SIDSP (Sida spinosa (SIDSP); 125 g/Ha): 100
Herbicidal activity SIDSP (Sida spinosa (SIDSP); 250 g/Ha): 100
Herbicidal activity SIDSP (Sida spinosa (SIDSP); 500 g/Ha): 100
Herbicidal activity BEAVA (Beta vulgaris (BEAVA); 15 g/Ha): 90
Herbicidal activity BEAVA (Beta vulgaris (BEAVA); 30 g/Ha): 80
Herbicidal activity BEAVA (Beta vulgaris (BEAVA); 60 g/Ha): 80
Herbicidal activity BEAVA (Beta vulgaris (BEAVA); 125 g/Ha): 80
Herbicidal activity BEAVA (Beta vulgaris (BEAVA); 250 g/Ha): 90
Herbicidal activity BEAVA (Beta vulgaris (BEAVA); 500 g/Ha): 90
Herbicidal activity on a 0-100 scale, PANMI ([3]; 15 g/Ha): 0
Herbicidal activity on a 0-100 scale, PANMI ([3]; 30 g/Ha): 20
Herbicidal activity on a 0-100 scale, PANMI ([3]; 60 g/Ha): 50
Herbicidal activity on a 0-100 scale, PANMI ([3]; 125 g/Ha): 60
Herbicidal activity on a 0-100 scale, PANMI ([3]; 250 g/Ha): 80
Herbicidal activity on a 0-100 scale, PANMI ([3]; 500 g/Ha): 90
Herbicidal activity ALOMY ([4]; 15 g/Ha): 20
Herbicidal activity ALOMY ([4]; 30 g/Ha): 50
Herbicidal activity ALOMY ([4]; 60 g/Ha): 50
Herbicidal activity ALOMY ([4]; 125 g/Ha): 80
Herbicidal activity ALOMY ([4]; 250 g/Ha): 80
Herbicidal activity ALOMY ([4]; 500 g/Ha): 90
Herbicidal activity TRZAW ([5]; 15 g/Ha): 0
Herbicidal activity TRZAW ([5]; 30 g/Ha): 0
Herbicidal activity TRZAW ([5]; 60 g/Ha): 20
Herbicidal activity TRZAW ([5]; 125 g/Ha): 30
Herbicidal activity TRZAW ([5]; 250 g/Ha): 60
Herbicidal activity TRZAW ([5]; 500 g/Ha): 70
Herbicidal activity CHEAL ([6]; 15 g/Ha): 80
Herbicidal activity CHEAL ([6]; 30 g/Ha): 90
Herbicidal activity CHEAL ([6]; 60 g/Ha): 90
Herbicidal activity CHEAL ([6]; 125 g/Ha): 100
Herbicidal activity CHEAL ([6]; 250 g/Ha): 100
Herbicidal activity CHEAL ([6]; 500 g/Ha): 100
Herbicidal activity BIDPI (Bidens pilosa (BIDPI); 15 g/Ha): 70
Herbicidal activity BIDPI (Bidens pilosa (BIDPI); 30 g/Ha): 60
Herbicidal activity BIDPI (Bidens pilosa (BIDPI); 60 g/Ha): 70
Herbicidal activity BIDPI (Bidens pilosa (BIDPI); 125 g/Ha): 80
Herbicidal activity BIDPI (Bidens pilosa (BIDPI); 250 g/Ha): 80
Herbicidal activity BIDPI (Bidens pilosa (BIDPI); 500 g/Ha): 100
Herbicidal activity ZEAMX (Zea mays (ZEAMX); 15 g/Ha): 0
Herbicidal activity on a 0-100 scale, ZEAMX (Zea mays (ZEAMX); 15 g/Ha): 0
Herbicidal activity ZEAMX (Zea mays (ZEAMX); 30 g/Ha): 20
Herbicidal activity on a 0-100 scale, ZEAMX (Zea mays (ZEAMX); 30 g/Ha): 20
Herbicidal activity ZEAMX (Zea mays (ZEAMX); 60 g/Ha): 30
Herbicidal activity on a 0-100 scale, ZEAMX (Zea mays (ZEAMX); 60 g/Ha): 30
Herbicidal activity ZEAMX (Zea mays (ZEAMX); 125 g/Ha): 30
Herbicidal activity on a 0-100 scale, ZEAMX (Zea mays (ZEAMX); 125 g/Ha): 30
Herbicidal activity ZEAMX (Zea mays (ZEAMX); 250 g/Ha): 90
Herbicidal activity on a 0-100 scale, ZEAMX (Zea mays (ZEAMX); 250 g/Ha): 90
Herbicidal activity ZEAMX (Zea mays (ZEAMX); 500 g/Ha): 100
Herbicidal activity on a 0-100 scale, ZEAMX (Zea mays (ZEAMX); 500 g/Ha): 100
Herbicidal activity BRSNN (Brassica napus (BRSNN); 15 g/Ha): 80
Herbicidal activity BRSNN (Brassica napus (BRSNN); 30 g/Ha): 80
Herbicidal activity BRSNN (Brassica napus (BRSNN); 60 g/Ha): 90
Herbicidal activity BRSNN (Brassica napus (BRSNN); 125 g/Ha): 90
Herbicidal activity BRSNN (Brassica napus (BRSNN); 250 g/Ha): 90
Herbicidal activity BRSNN (Brassica napus (BRSNN); 500 g/Ha): 90
Herbicidal activity STEME (Stellaria media (STEME); 15 g/Ha): 90
Herbicidal activity STEME (Stellaria media (STEME); 30 g/Ha): 90
Herbicidal activity STEME (Stellaria media (STEME); 60 g/Ha): 90
Herbicidal activity STEME (Stellaria media (STEME); 125 g/Ha): 90
Herbicidal activity STEME (Stellaria media (STEME); 250 g/Ha): 90
Herbicidal activity STEME (Stellaria media (STEME); 500 g/Ha): 90
Herbicidal activity on a 0-100 scale, SORVU (Sorghum bicolour (SORVU); 15 g/Ha): 0
Herbicidal activity on a 0-100 scale, SORVU (Sorghum bicolour (SORVU); 30 g/Ha): 60
Herbicidal activity on a 0-100 scale, SORVU (Sorghum bicolour (SORVU); 60 g/Ha): 70
Herbicidal activity on a 0-100 scale, SORVU (Sorghum bicolour (SORVU); 125 g/Ha): 90
Herbicidal activity on a 0-100 scale, SORVU (Sorghum bicolour (SORVU); 250 g/Ha): 90
Herbicidal activity on a 0-100 scale, SORVU (Sorghum bicolour (SORVU); 500 g/Ha): 90
